Measurements taken from PubChem BioAssay (NCI).
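These data come from cells grown in 96-well plates and exposed to compound for 48 hours at five concentrations. TGI marks complete inhibition of growth.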

How the values were obtained:
Assay in all cases: DTP human tumour cell line panel, 48 h
786-0 renal = tested on: 786-0 renal
A498 renal = tested on: A498 renal
A549 NSCLC = tested on: A549 NSCLC
ACHN renal = tested on: ACHN renal
CAKI-1 renal = tested on: CAKI-1 renal
CCRF-CEM leukemia = tested on: CCRF-CEM leukemia
COLO 205 colon = tested on: COLO 205 colon
DU-145 prostate = tested on: DU-145 prostate
EKVX NSCLC = tested on: EKVX NSCLC
HCC-2998 colon = tested on: HCC-2998 colon
HCT-116 colon = tested on: HCT-116 colon
HCT-15 colon = tested on: HCT-15 colon
HL-60(TB) leukemia = tested on: HL-60(TB) leukemia
HOP-62 NSCLC = tested on: HOP-62 NSCLC
HOP-92 NSCLC = tested on: HOP-92 NSCLC
HS 578T breast = tested on: HS 578T breast
HT29 colon = tested on: HT29 colon
IGROV1 ovarian = tested on: IGROV1 ovarian
K-562 leukemia = tested on: K-562 leukemia
KM12 colon = tested on: KM12 colon
LOX IMVI melanoma = tested on: LOX IMVI melanoma
M14 melanoma = tested on: M14 melanoma
MALME-3M melanoma = tested on: MALME-3M melanoma
MDA-MB-231 breast = tested on: MDA-MB-231 breast
MDA-MB-435 = tested on: MDA-MB-435
MDA-N = tested on: MDA-N
MOLT-4 leukemia = tested on: MOLT-4 leukemia
NCI-H226 lung = tested on: NCI-H226 lung
NCI-H23 lung = tested on: NCI-H23 lung
NCI-H460 lung = tested on: NCI-H460 lung
NCI-H522 lung = tested on: NCI-H522 lung
NCI/ADR-RES ovarian = tested on: NCI/ADR-RES ovarian
OVCAR-3 ovarian = tested on: OVCAR-3 ovarian
OVCAR-4 ovarian = tested on: OVCAR-4 ovarian
OVCAR-5 ovarian = tested on: OVCAR-5 ovarian
OVCAR-8 ovarian = tested on: OVCAR-8 ovarian
PC-3 prostate = tested on: PC-3 prostate
RXF 393 renal = tested on: RXF 393 renal
SF-268 CNS = tested on: SF-268 CNS
SF-295 CNS = tested on: SF-295 CNS
SF-539 CNS = tested on: SF-539 CNS
SK-MEL-2 melanoma = tested on: SK-MEL-2 melanoma
SK-MEL-28 melanoma = tested on: SK-MEL-28 melanoma
SK-MEL-5 melanoma = tested on: SK-MEL-5 melanoma
SK-OV-3 ovarian = tested on: SK-OV-3 ovarian
SN12C renal = tested on: SN12C renal
SNB-19 CNS = tested on: SNB-19 CNS
SNB-75 CNS = tested on: SNB-75 CNS
SR leukemia = tested on: SR leukemia
SW-620 colon = tested on: SW-620 colon
T-47D breast = tested on: T-47D breast
TK-10 renal = tested on: TK-10 renal
U251 CNS = tested on: U251 CNS
UACC-257 melanoma = tested on: UACC-257 melanoma
UACC-62 melanoma = tested on: UACC-62 melanoma
UO-31 renal = tested on: UO-31 renal
MCF7 breast = tested on: MCF7 breast
RPMI-8226 leukemia = tested on: RPMI-8226 leukemia

Measured: TGI

C=C1C2CC3CCC2C(OC(=O)c2ccccc2C(=O)O)C13 (stereo unspecified)
> 100 µM: 786-0 renal | A498 renal | A549 NSCLC | ACHN renal | CAKI-1 renal | CCRF-CEM leukemia | COLO 205 colon | DU-145 prostate | EKVX NSCLC | HCC-2998 colon | HCT-116 colon | HCT-15 colon | HL-60(TB) leukemia | HOP-62 NSCLC | HOP-92 NSCLC | HS 578T breast | HT29 colon | IGROV1 ovarian | K-562 leukemia | KM12 colon | LOX IMVI melanoma | M14 melanoma | MALME-3M melanoma | MDA-MB-231 breast | MDA-MB-435 | MDA-N | MOLT-4 leukemia | NCI-H226 lung | NCI-H23 lung | NCI-H460 lung | NCI-H522 lung | NCI/ADR-RES ovarian | OVCAR-3 ovarian | OVCAR-4 ovarian | OVCAR-5 ovarian | OVCAR-8 ovarian | PC-3 prostate | RXF 393 renal | SF-268 CNS | SF-295 CNS | SF-539 CNS | SK-MEL-2 melanoma | SK-MEL-28 melanoma | SK-MEL-5 melanoma | SK-OV-3 ovarian | SN12C renal | SNB-19 CNS | SNB-75 CNS | SR leukemia | SW-620 colon | T-47D breast | TK-10 renal | U251 CNS | UACC-257 melanoma | UACC-62 melanoma | UO-31 renal

CO[C@@H]1C[C@H]2[C@@H]3CC[C@H]([C@H](C)COC(C)=O)[C@@]3(C)CC[C@@H]2[C@@]2(C)CC[C@H]3C[C@]312
> 100 µM: 786-0 renal | A498 renal | A549 NSCLC | ACHN renal | CAKI-1 renal | CCRF-CEM leukemia | COLO 205 colon | DU-145 prostate | EKVX NSCLC | HCC-2998 colon | HCT-116 colon | HCT-15 colon | HL-60(TB) leukemia | HOP-62 NSCLC | HOP-92 NSCLC | HS 578T breast | HT29 colon | IGROV1 ovarian | K-562 leukemia | KM12 colon | LOX IMVI melanoma | M14 melanoma | MALME-3M melanoma | MCF7 breast | MDA-MB-231 breast | MDA-MB-435 | MDA-N | MOLT-4 leukemia | NCI-H226 lung | NCI-H23 lung | NCI-H460 lung | NCI-H522 lung | NCI/ADR-RES ovarian | OVCAR-3 ovarian | OVCAR-4 ovarian | OVCAR-5 ovarian | OVCAR-8 ovarian | PC-3 prostate | RPMI-8226 leukemia | RXF 393 renal | SF-268 CNS | SF-295 CNS | SF-539 CNS | SK-MEL-28 melanoma | SK-MEL-5 melanoma | SN12C renal | SNB-19 CNS | SNB-75 CNS | SR leukemia | SW-620 colon | T-47D breast | TK-10 renal | U251 CNS | UACC-257 melanoma | UO-31 renal
